What was measured:
[1] = system: Salmonella typhimurium tester strain TA97a; assay: AMES testing (bacterial reverse mutation test, Salmonella/microsome assay), strain TA97a; assay type: cell-based; conditions: for increase in the number of revertants over the concurrent vehicle controls: strain TA97a; for mutagenicity (overall conclusion): strain TA97a in presence of metabolic activation, criterion 2-fold increase in revertants
Text: (§1) The Ames assay is a rapid, reliable and economical method for screening compounds for potential genetic activity at the nucleotide level. A large database has been accumulated with this assay, confirming its ability to detect genetically active compounds of most chemical classes with around 80 to 90% sensitivity and specificity.
(§2) With the exception of strain TA102, these strains require biotin as well as histidine for growth. In strain TA102 the critical mutation in the histidine gene is located on a multicopy plasmid pAQ1. This strain is particularly sensitive to the activities of oxidative and cross-linking mutagens. The plasmid derivatives (TA98, TA100, TA97a and TA102) have increased sensitivity to certain mutagens as the pKM101 plasmid codes for an error-prone DNA repair system^(1,3).
(§3) When exposed to a mutagen, some of the bacteria in the treated population, through chemical interaction with the compound, undergo genetic changes which cause them to revert to a non-histidine-requiring state and thus grow in the absence of exogenous histidine. Different tester strains are used because each is mutated by particular chemical classes of compound. A compound that is mutagenic in one strain need not be so in another^(1,3).
(§4) Test item: INT 3, also known as 5-fluoro-2-methyl-3-(4,4,5,5-tetramethyl-1,3,2-dioxaborolan-2-yl)aniline. Vehicle: Di-methyl sulfoxide (DMSO) Purity/Content of drug: 97.95%. Molecular Structure:
(§5) Strains of Salmonella typhimurium used^(4,5,6): TA98, TA100, TA1535, TA97a and TA102. Metabolic activation system^(2): Liver S-9 mix from male rats, Aroclor 1254-pretreated. Per plate, 0.5 mL of 5% S-9 mix was added. Controls: Control treatments comprised additions at the same volume per plate (0.1 mL) as the test item solutions. Negative controls comprised treatments with the chosen vehicle.
(§6) Concentrations tested (Mutaqenicity Study): 50, 158, 501, 1582 and 5000 μg/plate (using all strains+/−S-9). […] Mutagenicity: Data from control treatments confirmed the correct strain and assay functioning, and the data were accepted as valid.
(§7) Acceptance criteria: The assay was considered valid as all the following criteria were met: • 1. Vehicle control counts fell within the normal ranges; • 2. The positive control chemicals induced increases in revertant numbers by 5- to 30-fold for different strains when compared to the concurrent vehicle controls confirming discrimination between different strains, and an active S-9 preparation.
(§8) Evaluation criteria: For valid data, the test item was considered mutagenic in this assay if a concentration related increase in revertant numbers of 2-fold (in strains TA98, TA100, TA1535 or TA97a) or 1.5-fold (in strain TA102) the concurrent vehicle control values was observed. […]

[2] = system: Salmonella typhimurium TA98, TA100, TA1535, TA97a and TA102; assay: AMES testing (bacterial reverse mutation test, Salmonella/microsome assay), all strains; assay type: cell-based
Text: as §1, §2, §3, §4, §5, §6, §7, §8

In the case of Cc1c(N)cc(F)cc1B1OC(C)(C)C(C)(C)O1 [INT 3, 5-fluoro-2-methyl-3-(4,4,5,5-tetramethyl-1,3,2-dioxaborolan-2-yl)aniline], the “increase in the number of revertants over the concurrent vehicle controls” value ([1]; Experiment 1, 5000 μg/plate, in the presence of metabolic activation (rat liver S-9)) is reported as 2.3 fold, the “increase in the number of revertants over the concurrent vehicle controls” value ([1]; Experiment 2, highest test concentration 5000 μg/plate, in presence of metabolic activation (rat liver S-9)) is reported as 1.8 fold and the “mutagenicity (overall conclusion)” value [1] is reported as “mutagenic potential”. The “mutagenicity (overall conclusion)” value ([1]; listed as INT3) was “weak mutagenic potential”, the “increase in revertant numbers over the concurrent vehicle controls, other strain treatments” value ([2]; any other strain treatments (TA98, TA100, TA1535, TA97a without S-9), 50-5000 μg/plate, +/- S-9) was under 2 fold and the “cytotoxicity to tester strains” value ([2]; preliminary cytotoxicity and mutagenicity test, any strain, presence and absence of metabolic activation, up to 5000 μg/plate) was “did not indicate any cytotoxicity”. The “increase in revertant numbers over the concurrent vehicle controls, strain TA102” value ([2]; strain TA102, 50-5000 μg/plate, +/- S-9) was under 1.5 fold and the “precipitation of test item” value ([2]; up to highest concentration (5000 μg/plate), presence and absence of metabolic activation, vehicle DMSO) was “did not precipitate”.
